Source: US20070060544A1, “4-Nitro-2-[(4'-methoxy)-phenoxy]-methanesulfonanilide derivatives and their pharmaceutical use” (priority 2002, published 2007)

Key:
[1] = tested on: acetate-induced body twisting; assay: acetate-induced body twisting in mice (analgesic effect); details: for analgesic effects compared with nimesulide (in words): oral
[2] = tested on: carrageenin-induced paw inflammation; assay: paw inflammation induced by carrageenin in mice; assay type: in vivo; details: for anti-inflammatory effects relative to nimesulide (times stronger): 0.243 mM/kg vs nimesulide 0.243 mM/kg; for anti-inflammatory effects relative to nimesulide (times stronger) / Paw Swelling mm (M ± SD) at 3 hours: at 3 hours; for anti-inflammatory effects compared with nimesulide (in words) / Paw Swelling mm (M ± SD) at 3 hours / Paw Swelling mm (M ± SD) at 6 hours: mice; for anti-inflammatory effects compared with nimesulide (in words): oral; for Paw Swelling mm (M ± SD) at 3 hours / Paw Swelling mm (M ± SD) at 6 hours: orally administered; for Paw Swelling mm (M ± SD) at 3 hours: 0.243 mM/Kg; for Paw Swelling mm (M ± SD) at 6 hours: 0.485 mM/Kg
[3] = acute oral toxicity in mice; details: orally administered
[4] = orally administered, 0.485 mM/Kg
[5] = orally administered, 0.97 mM/Kg

| Compound | analgesic effects compared with nimesulide (in words) [1] | No. of body-twistings (M ± SD) at 1 hour [1, 4] | No. of body-twistings (M ± SD) at 1 hour [1, 5] | anti-inflammatory effects relative to nimesulide (times stronger) [2] | anti-inflammatory effects compared with nimesulide (in words) [2] | Paw Swelling mm (M ± SD) at 3 hours [2] [mm] | Paw Swelling mm (M ± SD) at 6 hours [2] [mm] | LD50 value (95% C.L.) [3] [mg/kg] | toxicity relative to nimesulide (times lower) [3] | No. of body-twisting (M ± SD) at 3 hours [1, 4] | No. of body-twisting (M ± SD) at 6 hours ([1]; orally administered, 0.97 (head: mg/Kg), at 6 hours) |
| --- | --- | --- | --- | --- | --- | --- | --- | --- | --- | --- | --- |
| 4-nitro-2-[(4′-methoxy)-phenoxy]-methanesulfonyl aniline [S6] | significantly stronger than nimesulide | 11.4 ± 5.3 | 10.8 ± 11.4 | about 4 times | significantly stronger than that of nimesulide | 0.58 ± 0.67 | 1.91 ± 0.66 | 2355.5 | about 4 times |  |  |
| CS(=O)(=O)Nc1ccc([N+](=O)[O-])cc1Oc1ccccc1 [Nimesulide, nimesulide, reference compound] |  |  | 14.8 ± 11.7 |  |  | 2.10 ± 1.39 | 2.58 ± 1.20 |  |  | 11.1 ± 9.7 | 21.00 ± 19.09 |
| COc1ccc(Oc2cc([N+](=O)[O-])ccc2NS(C)(=O)=O)cc1.C[C@H]1CC[C@H](N)CC1 [S9, 4-nitro-2-[(4′-methoxy)-phenoxy]-methanesulfonyl aniline, trans-4-methyl-cyclohexylamine salt] | significantly stronger than nimesulide |  |  | 2 times | significantly stronger than that of nimesulide | 1.18 ± 0.65 |  | 1223.3 | about 2 times | 6.7 ± 6.2 |  |
